# Assay results reported in patent US5879896A, “Method of screening for inhibitors of human thyrotropin releasing hormone (TRH) receptor” (Takeda Chemical Industries, Ltd., priority 1993, dated 1999).
# Where two headings read alike, the source gives them in different places. Square brackets hold non-standard residues; d marks the D form. Ends that are not written are not given here. Peptide text beside a SMILES is read from it. Blc = γ-butyrolactone-γ-carbonyl group; pGlu = O=C1CC[C@@H](C(=O)O)N1; Nva = CCC[C@H](N)C(=O)O
# T1: human TRH receptor (Homo sapiens, UniProt P34981)
# T1 sequence (P34981 1-398): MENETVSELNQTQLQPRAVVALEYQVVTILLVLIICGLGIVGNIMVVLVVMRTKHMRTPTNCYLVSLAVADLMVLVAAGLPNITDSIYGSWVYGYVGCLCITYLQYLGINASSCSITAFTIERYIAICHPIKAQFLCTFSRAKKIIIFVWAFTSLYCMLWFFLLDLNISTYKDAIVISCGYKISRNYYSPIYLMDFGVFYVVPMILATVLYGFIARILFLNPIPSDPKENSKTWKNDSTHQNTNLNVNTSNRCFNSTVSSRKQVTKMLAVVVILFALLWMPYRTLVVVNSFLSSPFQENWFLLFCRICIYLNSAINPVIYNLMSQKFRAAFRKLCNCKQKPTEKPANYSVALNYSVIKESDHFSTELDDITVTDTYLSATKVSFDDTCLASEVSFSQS
# T2: human TRH receptor protein (human)
# T2 chain: T1 sequence (P34981 1-398)
# B1: Blc His Pro (peptide)
# peptide: Blc-His-Pro
# B2: pGlu Phe Pro NH2 (peptide)
# peptide: [pGlu]-Phe-Pro-NH2
# B3: Cyclo(His--Pro) His Pro-Diketopiperazine (peptide)
# peptide: HP
# modifications: cyclic dipeptide (diketopiperazine) of His and Pro
# B4: pGlu Glu Pro NH2 (peptide)
# peptide: [pGlu]-Glu-Pro-NH2
# SMILES: NC(=O)[C@@H]1CCCN1C(=O)[C@H](CCC(=O)O)NC(=O)[C@@H]1CCC(=O)N1
# B5: pGLU His Pro (peptide)
# peptide: [pGlu]-His-Pro
# B6: pGlu NVal Pro NH2 (peptide)
# peptide: [pGlu]-[Nva]-Pro-NH2
# SMILES: CCC[C@H](NC(=O)[C@@H]1CCC(=O)N1)C(=O)N1CCC[C@H]1C(N)=O
# How the values were obtained:
# human TRH receptor = target: T1, human TRH receptor; test: Antagonism of [3H]TRH binding in CHO dhfr- cells transformed with human TRH receptor DNA (Examples 5 and 6); design: translation frame (open reading frame) of the human TRH receptor was constructed on pUC118; expressed in transfected cells; host or cells: CHO dhfr- cells (plasmid pAKKO1.11 with the human TRH receptor open reading frame); conditions: for inhibition at 10 µM / inhibition at 100 µM / inhibition at 1000 µM: 1 h; for Antagonistic binding activity to the human TRH receptor, in words: benzodiazepine compounds, 10 μM to 1 mM; for Antagonistic Rate (%) at Each Concentration (-log M): 60 min
# [1] = target: T2, human TRH receptor protein; test: competition with 10 nM 3H-TRH, CHO cells expressing human TRH receptor; compound at 10^-4 M
# [2] = target: T2, human TRH receptor protein; test: competition with 10 nM 3H-TRH, CHO cells expressing human TRH receptor; compound at 10^-5 M
# [3] = read-out: Antagonistic activity (TABLE 1; percentage to that of the control)
# [4] = -log M = 4, 10 nM [3H]TRH, read-out: Antagonistic Rate (%) at Each Concentration (-log M)
# [5] = -log M = 5, 10 nM [3H]TRH, read-out: Antagonistic Rate (%) at Each Concentration (-log M)
molecule,measurement,setting,value
"CNC1=Nc2ccc(Cl)cc2C(c2ccccc2)=[N+]([O-])C1 [Chlordiazepoxide, chlordiazepoxide]",inhibition at 10 µM,human TRH receptor; [3],-2.2%
same,inhibition at 100 µM,human TRH receptor; [3],7.1%
same,inhibition at 1000 µM,human TRH receptor; [3],46.8%
same,"Antagonistic binding activity to the human TRH receptor, in words",human TRH receptor,"antagonistic activity increased in order of midazolam, chlordiazepoxide and oxazepam"
"O=C1N[C@@H](Cc2c[nH]cn2)C(=O)N2CCC[C@@H]12 [Compound 2, Cyclo(His--Pro) His Pro-Diketopiperazine]",inhibition at 100 µM,human TRH receptor; [4],-1.1%
same,inhibition at 10 µM,human TRH receptor; [5],0.6%
"NC(=O)[C@@H]1CCCN1C(=O)[C@H](Cc1ccccc1)NC(=O)[C@@H]1CCC(=O)N1 [Compound 14, pGlu Phe Pro NH2] ([pGlu]-Phe-Pro-NH2)",inhibition at 100 µM,human TRH receptor; [4],96.2%
same,inhibition at 10 µM,human TRH receptor; [5],74.2%
"CCC[C@H](NC(=O)[C@@H]1CCC(=O)N1)C(=O)N1CCC[C@H]1C(N)=O [Compound 15, pGlu NVal Pro NH2] ([pGlu]-[Nva]-Pro-NH2)",inhibition at 100 µM,human TRH receptor; [4],78.6%
same,inhibition at 10 µM,human TRH receptor; [5],33.4%
"CN1C(=O)CN=C(c2ccccc2F)c2cc([N+](=O)[O-])ccc21 [Flunitrazepam, flunitrazepam]",inhibition at 10 µM,human TRH receptor; [3],-0.5%
same,inhibition at 100 µM,human TRH receptor; [3],-4%
same,inhibition at 1000 µM,human TRH receptor; [3],-13.7%
same,"Antagonistic binding activity to the human TRH receptor, in words",human TRH receptor,no antagonistic binding was observed at all
"Cc1ncc2n1-c1ccc(Cl)cc1C(c1ccccc1F)=NC2 [Midazolam, midazolam]",inhibition at 10 µM,human TRH receptor; [3],2.6%
same,inhibition at 100 µM,human TRH receptor; [3],12%
same,inhibition at 1000 µM,human TRH receptor; [3],69.7%
same,"Antagonistic binding activity to the human TRH receptor, in words",human TRH receptor,"antagonistic activity increased in order of midazolam, chlordiazepoxide and oxazepam"
pGlu His Pro Gly Lys ([pGlu]HPGK) [Compound 3],Antagonistic Rate (%) at Each Concentration (-log M),"human TRH receptor; -log M = 5, 10 nM [3H]TRH",31.9%
same,Antagonistic Rate (%) at Each Concentration (-log M),"human TRH receptor; -log M = 6, 10 nM [3H]TRH, 1 µM",-0.6%
B1,Antagonistic Rate (%),[1],0.7%
same,Antagonistic Rate (%),[2],-0.1%
B2,Antagonistic Rate (%),[1],96.2%
same,Antagonistic Rate (%),[2],74.2%
B3,Antagonistic Rate (%),[1],-1.1%
same,Antagonistic Rate (%),[2],0.6%
B4,Antagonistic Rate (%),[2],-2.9%
B5,Antagonistic Rate (%),[1],40.8%
same,Antagonistic Rate (%),[2],11.8%
B6,Antagonistic Rate (%),[1],78.6%
same,Antagonistic Rate (%),[2],33.4%
